The target in one assay is T1, wildtype Kras / hSOS1 (Homo sapiens, UniProt P01116).
T1 construct: made in house; host or cells: E. coli BL21 (DE3)
Put plainly: HTRF assay, wildtype Kras / SOS1 interaction. The class given is binding. To be noted: read-out: IC50 against wildtype Kras. In a few lines: (§1)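 Inhibition of wildtype or mutant K-Ras binding to hSOS1 is measured by FRET between antibody-bound Eu donor and XL665 acceptor. Protein levels are matched to the IC50 range under study. The 665/620 nm signal after ≥10 min yields IC50.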

The target of assay [1] is GST-tagged K-Ras mutant / His-tagged hSOS1 (Homo sapiens, UniProt P01116). The assay is described as follows: HTRF assay, K-Ras mutant / SOS1 interaction. To be noted: read-out: IC50 against mutant Kras. The class given is binding. In a few lines: as §1
Sequence of GST-tagged K-Ras mutant / His-tagged hSOS1 (P01116 whole entry G12D, form open): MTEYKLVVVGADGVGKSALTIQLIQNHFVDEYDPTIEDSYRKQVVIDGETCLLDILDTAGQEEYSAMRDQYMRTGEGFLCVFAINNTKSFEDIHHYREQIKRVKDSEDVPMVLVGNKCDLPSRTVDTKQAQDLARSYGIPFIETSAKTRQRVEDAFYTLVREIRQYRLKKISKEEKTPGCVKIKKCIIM
[2] abbreviates: compound nos. 102-196, general methodology of example 5.

The structures appear in SMILES notation. Like-named read-outs stand apart in the source and are kept apart here.

T1 sequence (P01116 1-188 isoform P01116-2): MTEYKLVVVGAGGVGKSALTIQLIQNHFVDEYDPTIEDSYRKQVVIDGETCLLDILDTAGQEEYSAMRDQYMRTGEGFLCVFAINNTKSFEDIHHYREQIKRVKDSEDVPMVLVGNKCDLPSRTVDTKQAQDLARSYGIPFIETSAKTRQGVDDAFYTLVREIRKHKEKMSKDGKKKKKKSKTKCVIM

Turning to `Oc1cc(-c2ccc3c(N4CC5CCC(C4)N5)nc(OC[C@]45CCCN4C[C@@H](F)C5)nc3c2OCC(F)(F)F)c2ccccc2c1` [Compound 608, 4-(4-(3,8-diazabicyclo-[3.2.1]octan-3-yl)-2-(((2S,7aR)-2-fluorotetra-hydro-1H-pyrrolizin-7a(5H)-yl)methoxy)-8-(2,2,2-trifluoroethoxy)-quinazolin-7-yl)naph-thalen-2-ol], the IC50 (at wildtype Kras / hSOS1 (compound nos. 401-703); in assay [1] (compound nos. 401-703)) was greater than 500 nM in each case.

For the molecule `CN1CCC[C@H]1COc1nc(N2CCCS(=O)(=O)CC2)c2cc(Cl)c(-c3cccc4sc(N)nc34)c(F)c2n1` [Compound 475, 4-(7-(2-aminobenzo[d]-thiazol-4-yl)-6-chloro-8-fluoro-2-(((S)-1-methyl-pyrrolidin-2-yl)methoxy)-quinazolin-4-yl)-1,4-thiazepane 1,1-dioxide], the IC50 (on wildtype Kras / hSOS1 (compound nos. 401-703); in assay [1] (compound nos. 401-703)) was less than 500 nM throughout.

Regarding `CN1CCC[C@H]1COc1nc(N2CCCCC(N)C2)c2cc(Cl)c(-c3cccc4sc(N)nc34)c(F)c2n1` (stereo partly drawn) [Compound 672, 4-(4-(3-aminoazepan-1-yl)-6-chloro-8-fluoro-2-(((S)-1-methylpyrrolidin-2-yl)meth-oxy)quinazolin-7-yl)ben-zo[d]thiazol-2-amine], the IC50 on wildtype Kras / hSOS1 (compound nos. 401-703) is greater than 500 nM; in assay [1] (compound nos. 401-703), less than 500 nM.

For `N#CC1COCCN(c2nc(OCC34CCCN3C[C@H](F)C4)nc3c(F)c(-c4ccc(F)c5sc(N)nc45)c(Cl)cc23)C1` (stereo partly drawn) [Compound 513, 4-(7-(2-amino-7-fluoroben-zo[d]thiazol-4-yl)-6-chloro-8-fluoro-2-(((2R)-2-fluoro-tetrahydro-1H-pyrrolizin-7a(5H)-yl)methoxy)quin-azolin-4-yl)-1,4-oxazepane-6-carbonitrile], the IC50 on wildtype Kras / hSOS1 (compound nos. 401-703) was greater than 500 nM; in assay [1] (compound nos. 401-703), less than 500 nM.

In the case of `NC(=O)C1COCCN(c2nc(OC[C@@]34CCCN3C[C@H](F)C4)nc3c(F)c(-c4ccc(F)c5sc(N)nc45)c(Cl)cc23)C1` (stereo partly drawn) [Compound 507, 4-(7-(2-amino-7-fluoroben-zo[d]thiazol-4-yl)-6-chloro-8-fluoro-2-(((2R,7aS)-2-fluorotetrahydro-1H-pyrrol-izin-7a(5H)-yl)methoxy)-quinazolin-4-yl)-1,4-oxazepane-6-carboxamide], the IC50 is greater than 500 nM on wildtype Kras / hSOS1 (compound nos. 401-703) and less than 500 nM in assay [1] (compound nos. 401-703).

Turning to `Nc1nc2c(-c3ccc4c(N5CC6CCC(C5)N6)nc(OCC56CCCN5CCC6)nc4n3)ccc(F)c2s1` [Compound 412, 4-(4-(3,8-diazabicyclo-[3.2.1]octan-3-yl)-2-((tetra-hydro-1H-pyrrolizin-7a(5H)-yl)methoxy)pyrido[2,3-d]-pyrimidin-7-yl)-7-fluoro-benzo[d]thiazol-2-amine], the IC50 on wildtype Kras / hSOS1 (compound nos. 401-703) was less than 500 nM; in assay [1] (compound nos. 401-703) it was greater than 500 nM.

`N#CCCc1cc2c(N3CC4CCC(C3)N4)nc(OC[C@@]34CCCN3C[C@H](F)C4)nc2c(F)c1-c1cccc2ccc(F)c(Cl)c12` [Compound 451, 3-(4-(3,8-diazabicyclo-[3.2.1]octan-3-yl)-7-(8-chloro-7-fluoronaphthalen-1-yl)-8-fluoro-2-(((2R,7aS)-2-fluorotetrahydro-1H-pyrrolizin-7a(5H)-yl)meth-oxy)quinazolin-6-yl)pro-panenitrile]: the IC50 at wildtype Kras / hSOS1 (compound nos. 401-703) was less than 500 nM; in assay [1] (compound nos. 401-703) it was greater than 500 nM.

On to `Nc1nc2c(-c3c(Cl)cc4c(N5CC6CCC(C5)N6)nc(OC[C@@]56CCCN5C[C@H](F)C6)nc4c3F)cc(Cl)cc2s1` [Compound 601, 4-(4-(3,8-diazabicyclo-[3.2.1]octan-3-yl)-6-chloro-8-fluoro-2-(((2R,7aS)-2-fluorotetrahydro-1H-pyrrol-izin-7a(5H)-yl)methoxy)-quinazolin-7-yl)-6-chloro-benzo[d]thiazol-2-amine], for which the IC50 at wildtype Kras / hSOS1 (compound nos. 401-703) is greater than 500 nM; in assay [1] (compound nos. 401-703) it was less than 500 nM.

For the molecule `Fc1c(-c2cccc3c2CCCC3)c(Cl)cc2c(N3CC4CCC(C3)N4)nc(OC[C@@]34CCCN3C[C@H](F)C4)nc12` [Compound 619, 4-(3,8-diazabicyclo[3.2.1]-octan-3-yl)-6-chloro-8-fluoro-2-(((2R,7aS)-2-fluorotetrahydro-1H-pyrrol-izin-7a(5H)-yl)methoxy)-7-(5,6,7,8-tetrahydronaph-thalen-1-yl)quinazoline], the IC50 (on wildtype Kras / hSOS1 (compound nos. 401-703); in assay [1] (compound nos. 401-703)) was greater than 500 nM throughout.

On to `Nc1nc2c(-c3c(Cl)cc4c(N5CCCC(N)CC5)nc(OC[C@@]56CCCN5C[C@H](F)C6)nc4c3F)ccc(F)c2s1` (stereo partly drawn) [Compound 431, 4-(4-(4-aminoazepan-1-yl)-6-chloro-8-fluoro-2-(((2R,7aS)-2-fluorotetra-hydro-1H-pyrrolizin-7a(5H)-yl)methoxy)quinazolin-7-yl)-7-fluorobenzo[d]thiazol-2-amine], for which the concentration for half-maximal inhibition (IC50) (on wildtype Kras / hSOS1 (compound nos. 401-703); in assay [1] (compound nos. 401-703)) was less than 500 nM throughout.

For `Nc1nc2c(-c3cc4nc(OCC56CCCN5CCC6)nc(N5CC6CCC(C5)N6)c4cc3Cl)ccc(F)c2s1` [Compound 591, 4-(4-(3,8-diazabicyclo-[3.2.1]octan-3-yl)-6-chloro-2-((tetrahydro-1H-pyrrol-izin-7a(5H)-yl)methoxy)-quinazolin-7-yl)-7-fluoro-benzo[d]thiazol-2-amine], the IC50 at wildtype Kras / hSOS1 (compound nos. 401-703) is greater than 500 nM; in assay [1] (compound nos. 401-703) it was less than 500 nM.

As for `Nc1cccc(-c2c(Cl)cc3c(N4CC5CCC(C4)N5)nc(OCC45CCCN4CCC5)nc3c2F)c1F` [Compound 440, 3-(4-(3,8-diazabicyclo-[3.2.1]-octan-3-yl)-6-chloro-8-fluoro-2-((tetrahydro-1H-pyrrolizin-7a(5H)-yl)meth-oxy)quinazolin-7-yl)-2-fluoroaniline], the values for the IC50 (at wildtype Kras / hSOS1 (compound nos. 401-703); in assay [1] (compound nos. 401-703)) were less than 500 nM and greater than 500 nM, respectively.

`Nc1c(F)ccc(-c2c(Cl)cc3c(N4CC5CCC(C4)N5)nc(OCC45CCCN4CCC5)nc3c2F)c1F` [Compound 563, 3-(4-(3,8-diazabicyclo-[3.2.1]octan-3-yl)-6-chloro-8-fluoro-2-((tetrahydro-1H-pyrrolizin-7a(5H)-yl)meth-oxy)quinazolin-7-yl)-2,6-difluoroaniline]: the concentration for half-maximal inhibition (IC50) (at wildtype Kras / hSOS1 (compound nos. 401-703); in assay [1] (compound nos. 401-703)) was greater than 500 nM each time.

As for `Nc1cc(-c2ccc3c(N4CC5CCC(C4)N5)nc(OCC45CCCN4CCC5)nc3c2F)c2ccccc2n1` [Compound 641, 4-(4-(3,8-diazabicyclo-[3.2.1]octan-3-yl)-8-fluoro-2-((tetrahydro-1H-pyrrol-izin-7a(5H)-yl)methoxy)-quinazolin-7-yl)quinolin-2-amine], the IC50 (at wildtype Kras / hSOS1 (compound nos. 401-703); in assay [1] (compound nos. 401-703)) was greater than 500 nM throughout.

Consider `CC(C)CN1CCCN(c2nc(OCC34CCCN3CCC4)nc3c(F)c(-c4ccc(F)c5sc(N)nc45)c(Cl)cc23)CC1` [Compound 460, 4-(6-chloro-8-fluoro-4-(4-isobutyl-1,4-diazepan-1-yl)-2-((tetrahydro-1H-pyrrolizin-7a(5H)-yl)methoxy)quin-azolin-7-yl)-7-fluorobenzo-[d]thiazol-2-amine-], for which the IC50 (at wildtype Kras / hSOS1 (compound nos. 401-703); in assay [1] (compound nos. 401-703)) was less than 500 nM each time.

Take `Nc1nc2c(-c3c(Cl)cc4c(N5CCNCC(F)(F)C5)nc(OC[C@@]56CCCN5C[C@H](F)C6)nc4c3F)cccc2o1` [Compound 174, 4-(6-chloro-4-(6,6-difluoro-1,4-diazepan-1-yl)-8-fluoro-2-(((2R,7aS)-2-fluorotetra-hydro-1H-pyrrolizin-7a(5H)-yl)methoxy)quinazolin-7-yl)benzo[d]oxazol-2-amine]: the IC50 (on wildtype Kras / hSOS1 (setting [2]); in assay [1] (setting [2])) was less than 500 nM each time.

In the case of `Nc1nc2c(-c3c(Cl)cc4c(N5CCNCC(O)C5)nc(OCC56CCCN5CCC6)nc4c3F)ccc(F)c2s1` (stereo not drawn) [Compound 161, 1-(7-(2-amino-7-fluoro-benzo[d]thiazol-4-yl)-6-chloro-8-fluoro-2-((tetra-hydro-1H-pyrrolizin-7a(5H)-yl)methoxy)quinazolin-4-yl)-1,4-diazepan-6-ol], the half-maximal inhibitory concentration (IC50) (on wildtype Kras / hSOS1 (setting [2]); in assay [1] (setting [2])) was less than 500 nM each time.

For `Cc1ccc2cnn(C#N)c2c1-c1c(Cl)cc2c(N3CC4CCC(C3)N4)nc(OC[C@@]34CCCN3C[C@H](F)C4)nc2c1F` [Compound 678, 7-(4-(3,8-diazabicyclo-[3.2.1]octan-3-yl)-6-chloro-8-fluoro-2-(((2R,7aS)-2-fluorotetrahydro-1H-pyrrol-izin-7a(5H)-yl)methoxy)-quinazolin-7-yl)-6-methyl-1H-indazole-1-carbonitrile], the IC50 (at wildtype Kras / hSOS1 (compound nos. 401-703); in assay [1] (compound nos. 401-703)) was greater than 500 nM each time.

As for `Fc1c(-c2cccc3cn[nH]c23)ccc2c(N3CC4CCC(C3)N4)nc(OC[C@@]34CCCN3C[C@H](F)C4)nc12` [Compound 657, 4-(3,8-diazabicyclo[3.2.1]-octan-3-yl)-8-fluoro-2-(((2R,7aS)-2-fluorotetra-hydro-1H-pyrrolizin-7a(5H)-yl)methoxy)-7-(1H-indazol-7-yl)quinazoline], the IC50 (at wildtype Kras / hSOS1 (compound nos. 401-703); in assay [1] (compound nos. 401-703)) was greater than 500 nM throughout.

Regarding `CN1CCC[C@H]1COc1nc(N2CCCCC(F)(F)C2)c2cc(Cl)c(-c3ccc(F)c4sc(N)nc34)c(F)c2n1` [Compound 108, 4-(6-chloro-4-(3,3-difluoro-azepan-1-yl)-8-fluoro-2-(((S)-1-methylpyrrolidin-2-yl)methoxy)quinazolin-7-yl)-7-fluorobenzo[d]thiazol-2-amine], the IC50 (on wildtype Kras / hSOS1 (setting [2]); in assay [1] (setting [2])) was less than 500 nM in each case.

On to `Nc1nc2c(-c3c(Cl)cc4c(N5CC6CCC(C5)N6)nc(OCC5(CN6CCCC6)CC5)nc4c3F)ccc(F)c2s1` [Compound 553, 4-(4-(3,8-diazabicyclo-[3.2.1]-octan-3-yl)-6-chloro-8-fluoro-2-((1-(pyrrolidin-1-ylmethyl)cyclopropyl)meth-oxy)quinazolin-7-yl)-7-fluorobenzo[d]thiazol-2-amine], for which the IC50 on wildtype Kras / hSOS1 (compound nos. 401-703) was greater than 500 nM; in assay [1] (compound nos. 401-703) it was less than 500 nM.

(Values after patent US20240254129A1, “HETEROCYCLIC COMPOUNDS AND USES THEREOF” (Kumquat Biosciences Inc., priority 2021, published 2024).)
